Measurements as given in patent US20230405026A1, “A Method of Treating Depression by Immune Modulation” (Mynd Life Sciences Inc., priority 2020, published 2023).

Key:
IL-4 = test: Escitalopram induction of IL-4 in RAW macrophages, real time RT-PCR; format: cell-based; conditions: RAW macrophage cell line, 0.3 mM Escitalopram, 1 hour, normalized to housekeeping gene, vs DMSO control (FIG. 1)
Procedure: (§1) FIG. 1—illustrates that Escitalopram induces ABCF1 in a Macrophage cell line: RAW macrophages were plated at 1×10^5 cells/well and cultured for 2 days. The cells were incubated with 0.3 mM Escitalopram for 1 hour, and then harvested for total RNA, which was extracted for real time RT-PCR specific for ABCF1 and IL-4. CT values were normalized with CT value for the housekeeping gene from the DMSO control. The difference in the expression after drug treatment is consistent with polarization towards an M2-like phenotype (data were consistent in 3 separate experiments).
(§2) Additionally, noradrenergic or serotonin-norepinephrine reuptake inhibitors used to treat major depressive disorder have anti-inflammatory properties in vitro^55. […] Mechanistically, antidepressants likely mediate this through a reduction in pro-inflammatory cytokines IL-1b, TNFα, and IL-6 with a reciprocal increase in anti-inflammatory cytokines including […]. Studies have also shown that single nucleotide polymorphisms in IL-6 and IL-11, and mRNA levels of TNFα, are predictive of clinical response to the SSRI, escitalopram^63,64. Also, escitalopram modulates mRNA levels of cytokines in mouse brain^65 and decreases cytokine mRNA levels in the circulating immune cells of depression patients^60. […]

ABCF1 [1] = conditions: peripheral blood mononuclear cells of patients responding to escitalopram treatment; cited from earlier work
ABCF1 [2] = test: Escitalopram induction of ABCF1 in RAW macrophages, real time RT-PCR; format: cell-based
Procedure: as §1, §2

ABCF1 [3] = test: Effect of psylocibin, psylocin and analogs on ABCF1 transcription in RAW264.7, qPCR; format: cell-based; conditions: RAW264.7, 10 nM, 100 nM, 500 nM, normalized against GAPDH (FIG. 2)
Procedure: FIG. 2—illustrates the effect of psylocibin, psylocin and their analogs on ABCF1 transcription in a macrophage cell line. Briefly, the Macrophage cell line RAW264.7 (ATCC) were grown to 80% confluency in growth media (DMEM+ 10% FBS+ glutamine). Dilutions of psylocibin, psylocin and their analogs were made at desired final concentrations for a Dose response experiment. The concentrations' used for this experiment are: 10 nM, 100 nM, 500 nM for Psilocin, Psylocibin, 4-Acetoxy-N, N-dimthyltryptamine, O-Acetyl Psilocin Fumerate, and 4-acetoxyindole. The cells were incubated for 2 hours and then harvested for total RNA, which was extracted for real time RT-PCR specific for ABCF1. Untreated cells were used as negative control and Escitalopram at 0.3 mM was used as a positive control to activate ABCF1 expression for all the experiments. ES=escitalopram; PSYB=Psylocibin; PSIC=Psilocin; DMT=4-Acetoxy-N, N-dimthyltryptamine; APF=O-Acetyl Psilocin Fumerate, and AOI=4-acetoxyindole.
Preparation of Cells: • 1. Macrophage cell line RAW264.7 (ATCC) were grown to 80% confluency in growth media (DMEM+10% FBS+glutamine). • 2. Dilutions of the drugs were made at desired final concentrations for a Dose response experiment. […]
• 1. […] Normalized against the expression level of GAPDH, the fold change expression level of ABCF1 was calculated and tabulated for all treatment conditions.

| Compound | induction of IL-4 expression (IL-4) | transcription of ABCF1 in PBMCs (ABCF1 [1]) | induction of ABCF1 expression (ABCF1 [2]; RAW macrophage cell line, 0.3 mM Escitalopram, 1 hour, normalized to housekeeping gene, vs DMSO control (FIG. 1)) | ABCF1 induction in a macrophage cell line (in words) (ABCF1 [2]; RAW macrophages, 0.3 mM, 1 hour (FIG. 1 legend)) | ABCF1 transcription (in words) (ABCF1 [3]) |
| --- | --- | --- | --- | --- | --- |
| CN(C)CCC[C@@]1(c2ccc(F)cc2)OCc2cc(C#N)ccc21 [Escitalopram] | approximately 5 fold | increased the transcription | approximately 20 fold | induces ABCF1 | – |
| CN(C)CCc1c[nH]c2cccc(O)c12 [psylocin, 4-hydroxy-N,N-dimethyltryptamine] | – | – | – | – | upregulate ABCF1 transcription |
